{
  "source": "paper PMC12588666",
  "about": "(Therapeutic Drug Monitoring, 2025)",
  "key": {"[1]": {"system": "P. mirabilis", "assay": "Susceptibility of intraoperative culture isolate, P. mirabilis (case 1)", "format": "cell-based, Proteus mirabilis", "details": "case 1 intraoperative culture", "description": "(§1) Case 1: A patient (102.5 kg, creatinine clearance of 71 mL/min based on a 6-hour urine collection) developed a polymicrobial implant-associated spinal infection (IASI) after Th9-L3 spondylodesis and laminectomy at Th12. […] Surgical debridement was performed before dalbavancin therapy.\n(§2) Intravenous vancomycin and ceftriaxone were initiated to treat S. aureus, P. mirabilis, and E. faecium. S. aureus was susceptible to both agents, P. mirabilis to ceftriaxone, and E. faecium to vancomycin. After 1 week, ceftriaxone was switched to oral ciprofloxacin."}, "[2]": {"system": "S. aureus", "assay": "Susceptibility of intraoperative culture isolate, S. aureus (case 1)", "format": "cell-based, Staphylococcus aureus", "details": "case 1 intraoperative culture", "description": "as §1, §2"}, "[3]": {"system": "implant-associated spinal infection (IASI)", "assay": "Clinical outcome and tolerability in patients with implant-associated spinal infection", "description": "The total duration of the antimicrobial treatment was 12 weeks. Creatinine levels remained stable.\nSymptoms resolved within 2.5 hours after 1-mg oral clemastine (antihistamine) and was discharged."}, "[4]": {"assay": "Dalbavancin plasma concentrations by LC-MS/MS (TDM, case 1)", "format": "in vivo, human", "source_text": "Background: Implant-associated spinal infections (IASI) pose challenges for outpatient management due to the need for frequent intravenous antibiotic administration. […] One patient received therapeutic drug monitoring (TDM)-guided dosing, while the other was managed with fixed-interval dosing. […] Both patients successfully completed therapy without recurrence of the infection during follow-up. […] Further research is required to establish standardized therapeutic drug monitoring protocols for the management of IASI.\nThe second 1500 mg dose followed on day 8, with TDM on days 22 and 28."}, "[5]": {"details": "long half-life; cited from earlier work"}, "[6]": {"system": "E. faecium", "details": "Clinical and Laboratory Standards Institute; cited from earlier work", "source_text": "(§3) The Clinical and Laboratory Standards Institute has defined a tentative susceptibility breakpoint o ..."}, "[7]": {"system": "S. aureus", "details": "in vivo; cited from earlier work", "source_text": "as §3"}, "[8]": {"system": "E. faecium", "assay": "Susceptibility of intraoperative culture isolate, E. faecium (case 1)", "format": "cell-based, Enterococcus faecium", "details": "case 1 intraoperative culture", "description": "as §1, §2"}},
  "data": [
    {"smiles": "CO/N=C(\\C(=O)N[C@@H]1C(=O)N2C(C(=O)O)=C(CSc3nc(=O)c(=O)[nH]n3C)CS[C@H]12)c1csc(N)n1", "note": "[ceftriaxone]", "values": [
      {"measurement": "susceptibility of P. mirabilis", "setting": "[1]", "result": "susceptible"},
      {"measurement": "susceptibility of S. aureus", "setting": "[2]", "result": "susceptible"}
    ]},
    {"smiles": "CN[C@H]1C(=O)N[C@@H]2Cc3ccc(cc3)Oc3cc4cc(c3O[C@@H]3O[C@H](C(=O)O)[C@@H](O)[C@H](O)[C@H]3NC(=O)CCCCCCCCC(C)C)Oc3ccc(cc3Cl)[C@@H](O)[C@@H]3NC(=O)[C@H](NC(=O)[C@@H]4NC(=O)[C@@H](NC2=O)c2cc(cc(O)c2Cl)Oc2cc1ccc2O)c1ccc(O)c(c1)-c1c(O[C@H]2O[C@H](CO)[C@@H](O)[C@H](O)[C@@H]2O)cc(O)cc1[C@@H](C(=O)NCCCN(C)C)NC3=O", "note": "[dalbavancin]", "values": [
      {"measurement": "infection recurrence at follow-up", "setting": "[3]; both patients (case 1 TDM-guided three doses, case 2 fixed-interval four doses of 1500 mg)", "result": "without infection recurrence up to 8 months after therapy"},
      {"measurement": "blood, renal, and liver tests", "setting": "[3]; case 2", "result": "remained normal"},
      {"measurement": "adverse reaction after the final dose", "setting": "[3]; case 2, 85 kg, 4 off-label 1500-mg doses every 2 weeks without TDM", "result": "nausea, vomited once, and had a painful, itchy, erythematous, and swollen face"},
      {"measurement": "severity of reaction", "setting": "[3]; case 2, possibly due to the infusion", "result": "moderate reaction"},
      {"measurement": "trough concentration before the third dalbavancin infusion", "setting": "[4]; case 1, 102.5 kg, CrCl 71 mL/min, after 1500 mg doses on day 1 and day 8, single patient", "result": 10.3, "unit": "mg/L"},
      {"measurement": "peak plasma concentration after the third dalbavancin infusion", "setting": "[4]; case 1, third 1500-mg dose on day 44, single patient", "result": 301.8, "unit": "mg/L"},
      {"measurement": "half-life", "setting": "[5]", "result": "147 to 258", "unit": "h"},
      {"measurement": "tentative susceptibility breakpoint", "setting": "[6]", "result": 0.25, "unit": "mg/L"},
      {"measurement": "trough concentration corresponding to the ƒAUC24/MIC target", "setting": "[7]", "result": "≥ 8", "unit": "mg/L"}
    ]},
    {"smiles": "CN[C@H](CC(C)C)C(=O)N[C@H]1C(=O)N[C@@H](CC(N)=O)C(=O)N[C@H]2C(=O)N[C@H]3C(=O)N[C@H](C(=O)N[C@H](C(=O)O)c4cc(O)cc(O)c4-c4cc3ccc4O)[C@H](O)c3ccc(c(Cl)c3)Oc3cc2cc(c3O[C@@H]2O[C@H](CO)[C@@H](O)[C@H](O)[C@H]2O[C@H]2C[C@](C)(N)[C@H](O)[C@H](C)O2)Oc2ccc(cc2Cl)[C@H]1O", "note": "[vancomycin]", "values": [
      {"measurement": "susceptibility of S. aureus", "setting": "[2]", "result": "susceptible"},
      {"measurement": "susceptibility of E. faecium", "setting": "[8]", "result": "susceptible"}
    ]}
  ]
}
